Patent publication US12077503B2, “Substituted cyclic amides and their use as herbicides” (FMC CORPORATION, priority 2015, dated 2024)

Assays:
Format in all cases: in vivo
Kochia (Kochia scoparia) [1] = test: Test A preemergence; conditions: Bassia scoparia, pre-emergence, 240 h, 0 to 100 scale where 0 is no effect and 100 is complete control, read-out: Kochia plant response rating; for pest or weed control at 31 g/ha: 31 g ai/ha, Preemergence; for pest or weed control at 125 g/ha: 125 g ai/ha, preemergence, visual injury rating, approximately 10 d
How it was run: (§1)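 Seeded soil received test chemicals as a preemergence directed spray, and seedlings at one to two leaves, 2–10 cm tall, received them postemergence, in a non-phytotoxic, surfactant-containing solvent mixture. Pots were held in a greenhouse for approximately 10 d, then rated for injury from 0, no effect, to 100, complete control.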

[2] = tested on: barnyardgrass (Echinochloa crus-galli); test: Test A preemergence; conditions: Echinochloa crus-galli, pre-emergence, 240 h, 0 to 100 scale where 0 is no effect and 100 is complete control, read-out: Barnyardgrass plant response rating; for pest or weed control at 31 g/ha: 31 g ai/ha, Preemergence; for pest or weed control at 125 g/ha: 125 g ai/ha, preemergence, visual injury rating, approximately 10 d
How it was run: as §1

[3] = tested on: giant foxtail (Setaria faberii); test: Test A preemergence; conditions: Setaria faberi, pre-emergence, 240 h, 0 to 100 scale where 0 is no effect and 100 is complete control, read-out: Foxtail, Giant plant response rating; for pest or weed control at 31 g/ha: 31 g ai/ha, Preemergence; for pest or weed control at 125 g/ha: 125 g ai/ha, preemergence, visual injury rating, approximately 10 d
How it was run: as §1

[4] = tested on: pigweed (Amaranthus retroflexus); test: Test A preemergence; conditions: Amaranthus retroflexus, pre-emergence, 240 h, 0 to 100 scale where 0 is no effect and 100 is complete control, read-out: Pigweed plant response rating; for pest or weed control at 31 g/ha: 31 g ai/ha, Preemergence; for pest or weed control at 125 g/ha: 125 g ai/ha, preemergence, visual injury rating, approximately 10 d
[5] = tested on: ragweed (common ragweed, Ambrosia elatior); test: Test A preemergence; conditions: Ambrosia artemisiifolia, pre-emergence, 240 h, 0 to 100 scale where 0 is no effect and 100 is complete control, read-out: Ragweed plant response rating; for pest or weed control at 31 g/ha: 31 g ai/ha, Preemergence; for pest or weed control at 125 g/ha: 125 g ai/ha, preemergence, visual injury rating, approximately 10 d
How it was run: as §1

[6] = tested on: ryegrass, Italian (Italian ryegrass, Lolium multiflorum); test: Test A preemergence; conditions: Lolium multiflorum, pre-emergence, 240 h, 0 to 100 scale where 0 is no effect and 100 is complete control, read-out: Ryegrass, Italian plant response rating; for pest or weed control at 31 g/ha: 31 g ai/ha, Preemergence; for pest or weed control at 125 g/ha: 125 g ai/ha, preemergence, visual injury rating, approximately 10 d
How it was run: as §1

[7] = tested on: Galium (catchweed bedstraw, Galium aparine); test: Test A postemergence; conditions: Galium, post-emergence, 240 h, Postemergence, read-out: Galium plant response rating (0 to 100 scale); for pest or weed control at 125 g/ha: 125 g ai/ha, visual rating about 10 d after treatment; for pest or weed control at 31 g/ha: 31 g ai/ha, 0 is no effect, 100 is complete control
How it was run: as §1

Kochia (Kochia scoparia) [8] = test: Test A postemergence; conditions: Bassia scoparia, post-emergence, 240 h, Postemergence, read-out: Kochia plant response rating (0 to 100 scale); for pest or weed control at 125 g/ha: 125 g ai/ha, visual rating about 10 d after treatment; for pest or weed control at 31 g/ha: 31 g ai/ha, 0 is no effect, 100 is complete control
How it was run: as §1

[9] = tested on: barnyardgrass (Echinochloa crus-galli); test: Test A postemergence; conditions: Echinochloa crus-galli, post-emergence, 240 h, Postemergence; for pest or weed control at 125 g/ha: 125 g ai/ha, visual rating about 10 d after treatment, read-out: Barnyardgrass plant response rating (0 to 100 scale, 0 no effect, 100 complete control); for pest or weed control at 31 g/ha: 31 g ai/ha, 0 is no effect, 100 is complete control, read-out: Barnyardgrass plant response rating (0 to 100 scale)
How it was run: as §1

[10] = tested on: blackgrass (Alopecurus myosuroides); test: Test A postemergence; conditions: Alopecurus myosuroides, post-emergence, 240 h, Postemergence, read-out: Blackgrass plant response rating (0 to 100 scale); for pest or weed control at 125 g/ha: 125 g ai/ha, visual rating about 10 d after treatment; for pest or weed control at 31 g/ha: 31 g ai/ha, 0 is no effect, 100 is complete control
How it was run: as §1

corn (Zea mays) = test: Test A postemergence; conditions: Zea mays, post-emergence, 240 h, Postemergence, read-out: Corn plant response rating (0 to 100 scale); for plant injury at 125 g/ha: 125 g ai/ha, visual rating about 10 d after treatment; for plant injury at 31 g/ha: 31 g ai/ha, 0 is no effect, 100 is complete control
How it was run: as §1

[11] = tested on: giant foxtail (Setaria faberii); test: Test A postemergence; conditions: Setaria faberi, post-emergence, 240 h, Postemergence, read-out: Foxtail, Giant plant response rating (0 to 100 scale); for pest or weed control at 125 g/ha: 125 g ai/ha, visual rating about 10 d after treatment; for pest or weed control at 31 g/ha: 31 g ai/ha, 0 is no effect, 100 is complete control
How it was run: as §1

[12] = tested on: pigweed (Amaranthus retroflexus); test: Test A postemergence; conditions: Amaranthus retroflexus, post-emergence, 240 h, Postemergence, read-out: Pigweed plant response rating (0 to 100 scale); for pest or weed control at 125 g/ha: 125 g ai/ha, visual rating about 10 d after treatment; for pest or weed control at 31 g/ha: 31 g ai/ha, 0 is no effect, 100 is complete control
How it was run: as §1

[13] = tested on: ragweed (common ragweed, Ambrosia elatior); test: Test A postemergence; conditions: Ambrosia artemisiifolia, post-emergence, 240 h, Postemergence, read-out: Ragweed plant response rating (0 to 100 scale); for pest or weed control at 125 g/ha: 125 g ai/ha, visual rating about 10 d after treatment; for pest or weed control at 31 g/ha: 31 g ai/ha, 0 is no effect, 100 is complete control
How it was run: as §1

[14] = tested on: ryegrass, Italian (Italian ryegrass, Lolium multiflorum); test: Test A postemergence; conditions: Lolium multiflorum, post-emergence, 240 h, Postemergence, read-out: Ryegrass, Italian plant response rating (0 to 100 scale); for pest or weed control at 125 g/ha: 125 g ai/ha, visual rating about 10 d after treatment; for pest or weed control at 31 g/ha: 31 g ai/ha, 0 is no effect, 100 is complete control
How it was run: as §1

[15] = tested on: wheat (Triticum aestivum); test: Test A postemergence; conditions: Triticum aestivum, post-emergence, 240 h, Postemergence, read-out: Wheat plant response rating (0 to 100 scale); for plant injury at 125 g/ha: 125 g ai/ha, visual rating about 10 d after treatment; for plant injury at 31 g/ha: 31 g ai/ha, 0 is no effect, 100 is complete control
How it was run: as §1

[16] = tested on: barnyardgrass (Echinochloa crus-galli); test: Test B flooded paddy test; conditions: Echinochloa crus-galli, 250 g ai/ha, Flood; 0 to 100 scale where 0 is no effect and 100 is complete control; read-out: Barnyardgrass plant response rating
How it was run: (§2)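 2-leaf plants; pots flooded 3 cm over soil; cpd added to paddy water; depth held; greenhouse 13–15 d; visual rating vs controls, 0 = no effect, 100 = complete control.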

[17] = tested on: ducksalad (Heteranthera limosa); test: Test B flooded paddy test; conditions: Heteranthera limosa, 250 g ai/ha, Flood; 0 to 100 scale where 0 is no effect and 100 is complete control; read-out: Ducksalad plant response rating
How it was run: as §2

rice (Oryra sativa) = test: Test B flooded paddy test; conditions: Oryza sativa, 250 g ai/ha, Flood; 0 to 100 scale where 0 is no effect and 100 is complete control; read-out: Rice plant response rating
How it was run: as §2

[18] = tested on: sedge, umbrella (small-flower umbrella sedge, Cyperus difformis); test: Test B flooded paddy test; conditions: Cyperus difformis, 250 g ai/ha, Flood; 0 to 100 scale where 0 is no effect and 100 is complete control; read-out: Sedge, Umbrella plant response rating
How it was run: as §2

SMILES | pest or weed control at 31 g/ha (Kochia (Kochia scoparia) [1]) [%] | pest or weed control at 125 g/ha (Kochia (Kochia scoparia) [1]) [%] | pest or weed control at 31 g/ha [2] [%] | pest or weed control at 125 g/ha [2] [%] | pest or weed control at 31 g/ha [3] [%] | pest or weed control at 125 g/ha [3] [%] | pest or weed control at 31 g/ha [4] [%] | pest or weed control at 125 g/ha [4] [%] | pest or weed control at 31 g/ha [5] [%] | pest or weed control at 125 g/ha [5] [%] | pest or weed control at 31 g/ha [6] [%] | pest or weed control at 125 g/ha [6] [%] | pest or weed control at 125 g/ha [7] [%] | pest or weed control at 31 g/ha [7] [%] | pest or weed control at 125 g/ha (Kochia (Kochia scoparia) [8]) [%] | pest or weed control at 31 g/ha (Kochia (Kochia scoparia) [8]) [%] | pest or weed control at 125 g/ha [9] [%] | pest or weed control at 31 g/ha [9] [%] | pest or weed control at 125 g/ha [10] [%] | pest or weed control at 31 g/ha [10] [%] | further results
CN1C[C@H](c2csc3c2CCC3)[C@@H](C(=O)Nc2ccccc2F)C1=O [Compound 1277] | 0 | 0 | 80 | 100 | 90 | 100 | 0 | 0 | 0 | 0 | 0 | 0 | 0 | 0 | 0 | 0 | 80 | 30 | 0 | 0 | plant injury at 125 g/ha (corn (Zea mays)): 0%; plant injury at 31 g/ha (corn (Zea mays)): 0%; pest or weed control at 125 g/ha [11]: 70%; pest or weed control at 31 g/ha [11]: 50%; pest or weed control at 125 g/ha [12]: 0%; pest or weed control at 31 g/ha [12]: 0%; pest or weed control at 125 g/ha [13]: 30%; pest or weed control at 31 g/ha [13]: 30%; pest or weed control at 125 g/ha [14]: 0%; pest or weed control at 31 g/ha [14]: 0%; plant injury at 125 g/ha [15]: 0%; plant injury at 31 g/ha [15]: 0%; pest or weed control at 250 g/ha [16]: 40%; pest or weed control at 250 g/ha [17]: 60%; pest or weed control at 250 g/ha (rice (Oryra sativa)): 25%; pest or weed control at 250 g/ha [18]: 0%
CN1C[C@H](c2ccc(C(F)(F)F)cc2)[C@@H](C(=O)Nc2ccccc2-n2cccn2)C1=O [Compound 1283] | 0 | 0 | 0 | 0 | 0 | 0 | 0 | 0 | 0 | 0 | 0 | 0 | 0 | 0 | 0 | 0 | 0 | 0 | 0 | 0 | plant injury at 125 g/ha (corn (Zea mays)): 0%; plant injury at 31 g/ha (corn (Zea mays)): 0%; pest or weed control at 125 g/ha [11]: 0%; pest or weed control at 31 g/ha [11]: 0%; pest or weed control at 125 g/ha [12]: 0%; pest or weed control at 31 g/ha [12]: 0%; pest or weed control at 125 g/ha [13]: 0%; pest or weed control at 31 g/ha [13]: 0%; pest or weed control at 125 g/ha [14]: 0%; pest or weed control at 31 g/ha [14]: 0%; plant injury at 125 g/ha [15]: 0%; plant injury at 31 g/ha [15]: 0%; pest or weed control at 250 g/ha [16]: 0%; pest or weed control at 250 g/ha [17]: 0%; pest or weed control at 250 g/ha (rice (Oryra sativa)): 0%; pest or weed control at 250 g/ha [18]: 0%
